Assay results published in US20230286946A1, “DIFLUOROMETHYL-PYRIDIN-2-YL TRIAZOLES” (Boehringer Ingelheim International GmbH, priority 2020, published 2023).
Where two headings read alike, the source gives them in different places.

Assays:
[1] = biological target: T1, human GABAA α5β3γ2s receptor (Homo sapiens, UniProt P18507+P31644); experiment: Assay A: in vitro inhibition of 3H-flumazenil binding, HEK cells expressing the human GABAA α5β3γ2s receptor
T1 sequence (P18507 1-475): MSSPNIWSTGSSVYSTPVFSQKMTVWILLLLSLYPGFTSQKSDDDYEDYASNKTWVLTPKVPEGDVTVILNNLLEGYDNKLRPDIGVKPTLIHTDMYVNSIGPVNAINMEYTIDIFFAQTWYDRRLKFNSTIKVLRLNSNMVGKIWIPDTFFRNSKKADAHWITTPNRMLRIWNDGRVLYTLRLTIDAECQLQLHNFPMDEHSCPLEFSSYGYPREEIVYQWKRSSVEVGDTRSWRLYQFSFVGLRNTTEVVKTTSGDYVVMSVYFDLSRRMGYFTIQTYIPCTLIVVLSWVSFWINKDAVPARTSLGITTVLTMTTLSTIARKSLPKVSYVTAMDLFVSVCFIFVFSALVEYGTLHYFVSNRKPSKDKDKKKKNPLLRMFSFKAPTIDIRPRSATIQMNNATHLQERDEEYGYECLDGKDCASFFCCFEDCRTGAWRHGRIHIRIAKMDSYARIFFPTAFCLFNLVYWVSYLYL
T1 sequence (P31644 1-462): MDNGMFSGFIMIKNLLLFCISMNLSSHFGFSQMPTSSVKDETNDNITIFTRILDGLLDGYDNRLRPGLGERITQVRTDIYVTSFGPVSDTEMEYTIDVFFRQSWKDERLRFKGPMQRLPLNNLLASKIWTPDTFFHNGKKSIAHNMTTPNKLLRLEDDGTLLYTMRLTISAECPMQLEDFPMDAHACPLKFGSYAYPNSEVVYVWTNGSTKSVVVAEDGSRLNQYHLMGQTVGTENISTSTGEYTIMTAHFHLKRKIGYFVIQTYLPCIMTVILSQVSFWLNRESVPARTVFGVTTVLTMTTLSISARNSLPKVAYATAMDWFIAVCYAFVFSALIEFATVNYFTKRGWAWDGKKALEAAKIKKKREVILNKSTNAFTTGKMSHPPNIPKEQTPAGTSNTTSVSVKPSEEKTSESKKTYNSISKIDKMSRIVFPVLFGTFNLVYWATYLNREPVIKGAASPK

[2] = Metabolic stability in human liver microsomes (Human MST); assay type: in vitro ADME; conditions: pH 7.6, pooled human liver microsomes, 37° C., read-out: Human MST t½
Method: Assessment of Metabolic Stability in Human Liver Microsomes (Human MST) The metabolic stability of the compounds according to the invention may be investigated as follows: The metabolic degradation of the test compound is assayed at 37° C. with pooled human liver microsomes. The final incubation volume of 100 μL per time point contains TRIS buffer pH 7.6 at room temperature (0.1 M), MgCl2 (5 mM), microsomal protein (1 mg/mL) and the test compound at a final concentration of 1 μM. Following a short pre-incubation period at 37° C., the reactions are initiated by addition of beta-nicotinamide adenine dinucleotide phosphate, reduced form (NADPH, 1 mM), and terminated by transferring an aliquot into solvent after different time points. After centrifugation (10000 g, 5 min), an aliquot of the supernatant is assayed by LCMS/MS for the amount of parent compound. The half-life (t1/2) is determined by the slope of the semi-logarithmic plot of the concentration-time profile.

[3] = read-out: Assay A: GABAA α 5 β 3 γ 2s Ki

Row | Ki [1, 3] [nM] | half-life at 1 μM [2] [h] | Ki ([1]; compounds of the present invention, read-out: Assay A: GABAA α5 β3 γ2S Ki) [nM] | Structure (SMILES)
1 | 19 | > 2.17 | – | Cn1nnc(-c2ccc(C(F)F)cn2)c1COc1ccc(-n2ccc(C#N)n2)nn1 [Example 53]
2 | 10 | > 2.17 | 0.01 | Cc1nnn(-c2ccc(C(F)F)cn2)c1COc1ccc(-c2cnccn2)nn1 [Example 56, 3-({1-[5-(difluoromethyl)pyridin-2-yl]-4-methyl-1H-1,2,3-triazol-5-yl}methoxy)-6-(pyrazin-2-yl)pyridazine]
